Measurements taken from patent US5182298A, “Cholesterol lowering agents” (Merck & Co., Inc., priority 1991, dated 1993).
Values after ≈ are worked out from the molar mass of the structure shown. Read-outs that look alike come from different tables or passages of the source.

Tests used:
[1] = system: Aspergillus niger; assay: FISP disc diffusion assay, zone of inhibition; format: cell-based; details: 24 h, CH2Cl2, 250 μg/ml, agar diffusion, two lines for this species, read-out: Zone: diameter of the zone of inhibition of growth
Excerpt: (§1) The FISP assay employs disc diffusion susceptibility testing methods to generate a spectrum of activity against a panel of representative yeasts, filamentous fungi and bacteria.
(§2) The filamentous fungi used in the assay were Penicillium sp. Aspergillus niger, Trichoderma sp., Phoma sp., Trichoderma lignorum, Fusarium oxysporum, Ustilago maydis, Ceratocystis ulmi, Alternaria soloni, Verticillium serrae, Botrytis allii, Scopulariopsis communis, Cephalosporium sp., Cercospora beticola, Rhizomucor miehei, Aspergillus flavus and Aspergillus fumigatus.
(§3) For carrying out the assay, seeded assay plates are prepared in the following manner according to the type of assay strain.
(§4) Inocula for filamentous fungi are prepared by scraping the surface of stock plates maintained on potato dextrose agar with a moistened sterile dacron swab. The spores and mycelia are then suspended in 10 milliliters of sterile potato dextrose broth and adjusted to 65 percent transmission at 660 nm.
(§5) Assay plates for the yeasts and filamentous fungi are prepared by diluting the inoculum into appropriate molten agar medium, cooled to 45° C. to obtain a final concentration of 4 percent.
(§6) The seeded agar media thus prepared are dispensed into petri dishes for assays (11 milliliters per dish). […]
(§7) Following incubation, the inhibition zones are measured and recorded. […]

[2] = system: Torulospora hansenii; assay: FISP disc diffusion assay, zone of inhibition; format: cell-based; parameters: key: clear zone throughout, sharp edges; F: clear zone, fuzzy edges; S: slightly hazy zone (some growth observed throughout zone); H: hazy zone (considerable growth observed throughout zone); V: very hazy zone (zone of inhibition is barely discernable); R: zone displays a ring of resistant growth; details: CH2Cl2, 250 μg/ml
Excerpt: as §1
(§8) The yeasts employed in the assay are Saccharomyces cerevisiae, Candida albicans, Candida tropicalis, Candida rugosa, Brettanomyces bruxellensis, Torulospora hansenii, Candida guilliermondi, Candida pseudotropicalis, Torulopsis glabrata, Cryptococcus albidus, Cryptococcus laurentii and Kluyveromyces fragilis.
as §3
(§9) Inocula for yeasts and bacterial strains are prepared from overnight broth cultures then diluted into potato dextrose agar to a final concentration of either 40 percent or 70 percent transmission at 660 nm.
as §5
(§10) The seeded agar media thus prepared are dispensed into petri dishes for assays (11 milliliters per dish).
(§11) The samples to be tested for production of antifungal agent are applied to 6.2 mm. filter paper discs (25 microliter/disc) and air dried at 24° C. […]
as §7

[3] = system: Ceratocystis ulmi; assay: FISP disc diffusion assay, zone of inhibition; format: cell-based; parameters: key: clear zone throughout, sharp edges; F: clear zone, fuzzy edges; S: slightly hazy zone (some growth observed throughout zone); H: hazy zone (considerable growth observed throughout zone); V: very hazy zone (zone of inhibition is barely discernable); R: zone displays a ring of resistant growth; details: CH2Cl2, 250 μg/ml
Excerpt: as §1, §2, §3, §4, §5, §10
(§12) The samples to be tested for production of antifungal agent are applied to 6.2 mm. filter paper discs (25 microliter/disc) and air dried at 24° C. When the sample to be tested is crude broth, it may be centrifuged prior to application. The discs bearing the material to be tested are then applied employing sterile conditions to the seeded assay plates. The assay plates are then incubated at either 28° C. or 37° C. for 24 hours. In one of the assays for Bacillus subtilis, the sample is applied to a disc previously impregnated with 4M potassium chloride at 25 μl/disc and then air dried.
(§13) Following incubation, the inhibition zones are measured and recorded. The measurements are made from the extreme edge where growth differs from the background zone. […]

[4] = system: Phoma sp.; assay: FISP disc diffusion assay, zone of inhibition; format: cell-based; parameters: key: clear zone throughout, sharp edges; F: clear zone, fuzzy edges; S: slightly hazy zone (some growth observed throughout zone); H: hazy zone (considerable growth observed throughout zone); V: very hazy zone (zone of inhibition is barely discernable); R: zone displays a ring of resistant growth; details: CH2Cl2, 250 μg/ml
Excerpt: as §1, §2, §3, §4, §5, §10, §12, §13

[5] = system: Cephalosporium sp.; assay: FISP disc diffusion assay, zone of inhibition; format: cell-based; parameters: key: clear zone throughout, sharp edges; F: clear zone, fuzzy edges; S: slightly hazy zone (some growth observed throughout zone); H: hazy zone (considerable growth observed throughout zone); V: very hazy zone (zone of inhibition is barely discernable); R: zone displays a ring of resistant growth; details: CH2Cl2, 250 μg/ml
Excerpt: as §1, §2, §3, §4, §5, §10, §12, §13

[6] = system: Saccharomyces cerevisiae; assay: FISP disc diffusion assay, zone of inhibition; format: cell-based; details: 24 h, CH2Cl2, 250 μg/ml, agar diffusion, two lines without medium suffix, read-out: Zone: diameter of the zone of inhibition of growth
Excerpt: as §1, §8, §3, §9
(§14) For three strains of Candida albicans and one strain of Saccharomyces cerevisiae, sterile saline is employed in place of potato dextrose broth.
as §5, §6, §7

[7] = system: Candida albicans; assay: FISP disc diffusion assay, zone of inhibition; format: cell-based; details: 24 h, CH2Cl2, 250 μg/ml, agar diffusion, five lines without medium suffix, read-out: Zone: diameter of the zone of inhibition of growth
Excerpt: as §1, §8, §3, §9, §14, §5, §6, §7

[8] = light stability on isolation and handling; format: physicochemical
[9] = system: Saccharomyces cerevisiae; assay: Microdilution Broth Assay (MIC/MFC); format: cell-based
Protocol: (§15) The broad spectrum antifungal activity of the present compounds was further determined by broth dilution methods. The compounds are particularly active towards filamentous fungi and yeasts including Candida albicans and Crypt. neoformans. The sensitivity of filamentous fungi and yeasts was determined using inhibitor dilution assays in microtiter format. A standardized spore suspension for testing the filamentous fungi was prepared by inoculating sterile distilled water with spores such that 1.5-7.5×10^3 colony forming units were added per well. The microtiter wells were filled with 75 μl of yeast nitrogen base containing 1% Dextrose medium (YNB/D) containing compound. Fifty μl of inoculated YNB/D medium was then added to the wells.
(§16) The sensitivity of yeasts was determined by inoculating sterile distilled water with aliquots of a 4-hour yeast culture grown in Yeast Morphology (YM) media at 35° C. and diluting in YNB/D to yield a final concentration of 1.5-7.5×10^3 colony forming units/well. Seventy-five μl of inoculated media was added per well. To test the sensitivity of yeast, compound was solubilized in 10 percent aqueous DMSO at 2.56 mg/ml. The compound was diluted serially in YNB/D from 128 to 0.06 μg/ml. The wells were filled with 75 μl of drug containing media. […] Representative of the antifungal activity are the minimum inhibitory concentration and minimum fungicidal concentration data shown below in Table II: […]

[10] = system: Candida parapsilosis; assay: Microdilution Broth Assay (MIC/MFC); format: cell-based; details: Lodderomyces parapsilosis; strain MY 1010; read-out: MFC (minimum fungicidal concentration)
Protocol: as §15, §16

[11] = system: Candida albicans; assay: Microdilution Broth Assay (MIC/MFC); format: cell-based
Protocol: as §15, §16

[12] = system: Candida tropicalis; assay: Microdilution Broth Assay (MIC/MFC); format: cell-based
Protocol: as §15, §16

[13] = system: Cryptococcus neoformans; assay: Microdilution Broth Assay (MIC/MFC); format: cell-based; details: for MIC: 35° C., read-out: MIC (minimum inhibitory concentration)
Protocol: as §15, §16

[14] = system: Candida guilliermondii; assay: Microdilution Broth Assay (MIC/MFC); format: cell-based; details: Meyerozyma guilliermondii, strain MY 1019
Protocol: as §15, §16

[15] = system: Torulopsis glabrata; assay: FISP disc diffusion assay, zone of inhibition; format: cell-based; details: Nakaseomyces glabratus, 24 h; CH2Cl2, 250 μg/ml; agar diffusion; read-out: Zone: diameter of the zone of inhibition of growth
Excerpt: as §1, §8, §3, §9, §5, §10, §11, §7

[16] = system: Candida guilliermondii; assay: FISP disc diffusion assay, zone of inhibition; format: cell-based; details: Meyerozyma guilliermondii, 24 h; CH2Cl2, 250 μg/ml; agar diffusion; read-out: Zone: diameter of the zone of inhibition of growth
Excerpt: as §1, §8, §3, §9, §5, §10, §11, §7

[17] = system: Bacillus subtilis; assay: FISP disc diffusion assay, zone of inhibition; format: cell-based; details: CH2Cl2, 250 μg/ml, agar diffusion
Protocol: as §1
The bacteria employed in the assay are Streptomyces sp., Acholeplasma laidlawii and Bacillus subtilis.
as §3
Seeded agar for Bacillus subtilis are prepared from a commercially available spore suspension which is diluted directly into molten agar (45° C.) to obtain a final concentration of 0.1 percent.
as §10, §12, §7

## CC(/C=C/C=C(\C)C(O)C(C)C(=O)O[C@H]1C[C@H](C)C=C2C=C[C@@]3(C)O[C@@H](O)CC(=O)[C@]3(C)[C@H]21)=C\C=C\C(=O)O (some centres unmarked) [Compound A]
[1]
  zone of inhibition at 250 µg/mL: 0 mm
[2]
  Zone quality (qualifier): H
[3]
  Zone quality (qualifier): V
[4]
  Zone quality (qualifier): S
[5]
  Zone quality (qualifier): F
[6]
  zone of inhibition at 250 µg/mL: 0 mm
[7]
  zone of inhibition at 250 µg/mL: 0 mm
[8]
  light sensitivity: light sensitive
[8]; isolated and worked with in the absence of light
  stability: stable
[9]; strain MY 1976, 24 to 48 hours, 35° C., read-out: MIC (minimum inhibitory concentration)
  MIC: > 128 µg/mL
[9]; strain MY 1976, read-out: MFC (minimum fungicidal concentration)
  MFC: > 128 µg/mL
[10]
  MFC: 0.25 µg/mL (≈ 0.462 µM)
[11]; Candida albicans, strain MY 1055, 24 to 48 hours, 35° C., read-out: MIC (minimum inhibitory concentration)
  MIC: ≤ 0.06 µg/mL
[11]; Candida albicans, strain MY 1055, read-out: MFC (minimum fungicidal concentration)
  MFC: ≤ 0.06 µg/mL
[11]; strain MY 1028
  MFC (minimum fungicidal concentration): ≤ 0.06 µg/mL
[11]; strain MY 1028, 24 to 48 hours, 35° C.
  MIC (minimum inhibitory concentration): ≤ 0.06 µg/mL
[12]; strain MY 1012, 24 to 48 hours, 35° C., read-out: MIC (minimum inhibitory concentration)
  MIC: ≤ 0.06 µg/mL
[12]; strain MY 1012, read-out: MFC (minimum fungicidal concentration)
  MFC: 0.5 µg/mL (≈ 0.925 µM)
[13]; strain MY 1051, read-out: MFC (minimum fungicidal concentration)
  MFC: 32 µg/mL (≈ 59.2 µM)
[13]; strain MY 1146, 24 to 48 hours
  MIC: 128 µg/mL (≈ 237 µM)
[13]; strain MY 1146, read-out: MFC (minimum fungicidal concentration)
  MFC: 64 µg/mL (≈ 118 µM)
[13]; strain MY 2061, 24 to 48 hours
  MIC: 128 µg/mL (≈ 237 µM)
[13]; strain MY 2061, read-out: MFC (minimum fungicidal concentration)
  MFC: 64 µg/mL (≈ 118 µM)
[14]; 24 to 48 hours, 35° C., read-out: MIC (minimum inhibitory concentration)
  MIC: > 128 µg/mL
[14]; read-out: MFC (minimum fungicidal concentration)
  MFC: > 128 µg/mL
[15]
  zone of inhibition at 250 µg/mL: 0 mm
[16]
  zone of inhibition at 250 µg/mL: 0 mm
[17]; Bacillus subtilis, 24 h, KCl (disc impregnated with 4M potassium chloride), read-out: Zone: diameter of the zone of inhibition of growth
  zone of inhibition at 250 µg/mL: 0 mm
[17]
  Zone: diameter of the zone of inhibition of growth: 0 mm
